This note sets out measurements from patent US20210300859A1, “ROSMARINIC ACID DERIVATIVE OR SALT THEREOF” (KAO CORPORATION, priority 2018, published 2021).

For the experiment, the target named is T1, human TRPV4 (Homo sapiens, UniProt Q9HBA0).
T1 construct: expressed in transfected cells; host or cells: HeLa cells, transient transfection with a pcDNA 3.1 Directional TOPO vector
The experiment can be described thus: Evaluation of TRPV4 activity-inhibiting action: intracellular calcium ion influx rate in human TRPV4-expressing HeLa cells stimulated with GSK1016790a (Fluo 4). The settings on record: for Intracellular Ca^2+ influx rate (%): GSK + DMSO defined as 100%, n = 3, Mean ± S.E.; for calcium ion influx into cells by a TRPV4 agonist (result in words): concentration-dependent, 100 and 300 μM, vs GSK1016790a + DMSO, Dunnett's test. The format is cell-based. On the procedure:
HeLa cells were cultured using a DMEM/F12 medium containing 10% fetal bovine serum. The HeLa cells were seeded in a T-75 cell culture flask at 5×10^5 cells/flask. The cells were cultured for 3 days, were then transfected with the human TRPV4 gene expression vector (8 μg) produced in the above (2) using TransIT-HeLaMONSTER Transfection Kit, and were cultured for 1 day.
The cells were detached with Detachin, were seeded in a 96-well optical bottom plate containing a DMEM/F12 medium containing 10% fetal bovine serum at a cell density of 1.5×10^4 cells/90 μL/well, and were further cultured for 1 day.
The intracellular calcium ion influx rate was measured using Calcium Kit II-fluo 4. Loading buffer containing Fluo 4-AM and Hanks' balanced salt solution were mixed at 1:1 and were then added to the human TRPV4-expressing cells produced in the above (3) at 180 μL/well, followed by incubation at 37° C. for 1 hour. Subsequently, the fluorescence intensity (excitation wavelength: 488 nm, fluorescence wavelength: 524 nm) was measured every 2 seconds at 37° C. using a fluorescence plate reader FDSS3000 (Hamamatsu Photonics K.K.). 30 seconds after the start of the measurement, GSK1016790a as a TRPV4 agonist and the 4-O-methyl-rosmarinic acid or 3,4′-di-O-methyl-rosmarinic acid solution prepared in the above Manufacturing Example as a sample were each diluted with Hanks' balanced salt solution, and a mixture solution thereof (mixed immediately before the addition) was added at 20 μL/well. The change in fluorescence intensity was measured every 2 seconds for 300 seconds. GSK1016790a was added to give a final concentration of 3 nM.
In addition, as a positive control for TRPV4 activity inhibition, HC067047, which is a TRPV4 antagonist, was added at a final concentration of 10 μM. 4-O-Methyl-rosmarinic acid, 3,4′-di-O-methyl-rosmarinic acid, GSK1016790a, and HC067047 were all used by dissolving in dimethyl sulfoxide (DMSO).
The TRPV4 activity of a sample was calculated by the following expression, and the intracellular calcium ion influx rate due to the treatment with a TRPV4 agonist, GSK1016790a, was defined as 100%.
Intracellular calcium ion influx rate (%)=[(F max/F0)−(F max C2/F0C2)]/[(F max C1/F0C1)−(F max C2/F0C2)]×100
F max: Maximum fluorescence intensity of the well containing GSK1016790a and a sample in the period from 0 to 300 seconds after the start of the measurement,
F max C1: Maximum fluorescence intensity of the well containing GSK1016790a and a solvent in the period from 0 to 300 seconds after the start of the measurement,
F max C2: Maximum fluorescence intensity of the well containing only a solvent in the period from 0 to 300 seconds after the start of the measurement,
F0: Fluorescence intensity of the well of F max immediately after the start of the measurement,
F0C1: Fluorescence intensity of the well of F max C1 immediately after the start of the measurement, and
F0C2: Fluorescence intensity of the well containing only a solvent immediately after the start of the measurement.
The intracellular calcium ion influx rate (each group, n=3) when a sample was added was compared to that when GSK1016790a and a solvent (DMSO) were added and was examined by a Dunnett's test. […] The results are expressed as the mean value (Mean)±standard error (S.E.).
In general terms: Calcium assays in cells follow changes in intracellular calcium, usually with a dye or a luminescent sensor.

The mark [1] stands for this setting: sample 100 μM with GSK1016790a 3 nM.
Setting [2] is: sample 300 μM with GSK1016790a 3 nM.

T1 sequence (Q9HBA0 whole entry): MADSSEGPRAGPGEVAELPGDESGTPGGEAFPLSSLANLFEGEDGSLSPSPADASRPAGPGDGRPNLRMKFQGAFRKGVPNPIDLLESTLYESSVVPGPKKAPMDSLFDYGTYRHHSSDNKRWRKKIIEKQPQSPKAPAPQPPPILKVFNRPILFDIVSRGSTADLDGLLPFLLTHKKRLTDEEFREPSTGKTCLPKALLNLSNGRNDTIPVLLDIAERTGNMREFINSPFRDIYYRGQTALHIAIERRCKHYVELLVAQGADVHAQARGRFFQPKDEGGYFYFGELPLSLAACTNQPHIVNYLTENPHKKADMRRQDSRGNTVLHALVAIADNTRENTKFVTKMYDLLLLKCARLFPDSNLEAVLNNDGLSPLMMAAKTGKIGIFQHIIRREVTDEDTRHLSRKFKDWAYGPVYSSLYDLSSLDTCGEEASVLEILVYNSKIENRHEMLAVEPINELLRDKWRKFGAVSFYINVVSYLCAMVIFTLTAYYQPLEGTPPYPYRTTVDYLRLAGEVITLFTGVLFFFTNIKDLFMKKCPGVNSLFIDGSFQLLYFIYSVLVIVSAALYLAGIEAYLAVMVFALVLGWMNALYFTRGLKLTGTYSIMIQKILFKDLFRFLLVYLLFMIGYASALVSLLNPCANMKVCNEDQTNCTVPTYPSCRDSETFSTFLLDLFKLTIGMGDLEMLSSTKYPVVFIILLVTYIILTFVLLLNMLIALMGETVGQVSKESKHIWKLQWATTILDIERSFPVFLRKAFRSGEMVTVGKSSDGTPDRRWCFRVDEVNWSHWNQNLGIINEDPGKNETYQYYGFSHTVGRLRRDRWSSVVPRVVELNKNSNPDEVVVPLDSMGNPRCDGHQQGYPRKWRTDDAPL

For the compound `Cc1c(C(=O)Nc2cccc(C(F)(F)F)c2)cc(-c2ccccc2)n1CCCN1CCOCC1` [HC067047, reference compound], the “Intracellular Ca^2+ influx rate (%)” value (sample 10 μM with GSK1016790a 3 nM) is on record as 2.46 ± 0.14 (P < 0.001) %.

In the case of `COc1ccc(/C=C/C(=O)OC(Cc2ccc(O)c(OC)c2)C(=O)O)cc1O` (stereo not shown) [3,4′-DiMe-RA, (E)-3-(4-hydroxy-3-methoxyphenyl)-2-{[3-(3-hydroxy-4-methoxyphenyl)acryloyl]oxy}propionic acid], the “calcium ion influx into cells by a TRPV4 agonist (result in words)” value is “significantly decreased”. Besides, under setting [1], the “Intracellular Ca^2+ influx rate (%)” value is 78.81 ± 1.73 (P < 0.001) %. In addition, the “Intracellular Ca^2+ influx rate (%)” value under setting [2] is 71.25 ± 5.52 (P < 0..001) %.

`COc1ccc(CC(OC(=O)/C=C/c2ccc(O)c(O)c2)C(=O)O)cc1O` (stereo not shown) [4-Me-RA, (E)-3-(3-hydroxy-4-methoxyphenyl)-2-{[3-(3,4-dihydroxyphenyl)acryloyl]oxy}propionic acid]: the “calcium ion influx into cells by a TRPV4 agonist (result in words)” value is recorded as “significantly decreased”. Besides, the “Intracellular Ca^2+ influx rate (%)” value under setting [1] is listed as 92.65 ± 0.89 (N.S.) %. Besides, under setting [2], the “Intracellular Ca^2+ influx rate (%)” value is reported as 82.90 ± 3.04 (P < 0.01) %.
